Consider two compounds from patent US20220079855A1, “GINGSENG-BASED COSMETIC COMPOSITION” (L'OREAL, priority 2018, published 2022).

The test system of this assay is stratum corneum of viable human skin (abdominal or breast reduction plastic surgery). As to the kind of experiment: Desquamating activity: decrease in cohesion of the stratum corneum, histological score on excised human skin maintained under survival conditions. Type of assay: cell-based. The following applies: score 0-4; for Score 2: (mean ± sd, n = 6): Table 2, applied D0 and D1, analysed D2; for Score (mean ± sd, n = 6): Table 3 (white ginseng study). The procedure: The study aims to detect the desquamating potential of the combination of active agents according to the invention in simplex solution by observation of the cohesion of the stratum corneum.
The keratolytic effect on excised skin maintained under survival conditions […] was evaluated. The study was carried out on viable human skin resulting from abdominal or breast reduction plastic surgery (6 donors). These skin fragments were placed in inserts, comprising a porous membrane ([…]), themselves positioned on culture wells containing a culture medium as described in Boisnic et al., Journal of Cosmetics and laser therapy, 2010:12:25-31.
The protocol consists in applying the test solutions to skin samples maintained under survival conditions. The products tested are applied in a proportion of 15 μl per 1 cm^2 sample and are not rinsed off. Application is carried out twice, at D0 and then, 24 hours later, at D1. The morphology of the stratum corneum is analysed 48 hours after the first application, at D2, on a biopsy.
The solutions applied are the following: • compound A (plant active agent according to the invention) alone at 0.1% and 0.5% by weight of active material in water, and • compound B alone at 0.3% by weight in water • combination of A at 0.1% and B at 0.3% by weight in water • combination of A at 0.5% and B at 0.3% by weight in water.
By way of comparison, no solution is applied to a sample, referred to as a control sample, and a solution of glycolic acid at 30% by weight in water is applied to another sample. 6 samples were used for each of the tests (controls, compound A and compound B and combinations of A and B).
The histological analysis of the horny layer is carried out on a skin section after staining with hemalaun-eosin (magnification 400). The decrease in the cohesion of the stratum corneum is expressed in the form of a score: • score 0: absence of modification • score 1: slight decrease • score 2: moderate decrease • score 3: large decrease • score 4: very large decrease with exfoliation
A paired Student test (p<0.05) was carried out in order to evaluate the significance of the difference with respect to the control.
The protocol described in Example 2 was reproduced by considering a plant active agent not in accordance with the invention, namely white ginseng which is devoid of ginsenoside Rg3. This active agent considered is the product Ginseng ES, distributed by the company Greentech.

`CCCCCCCC(=O)c1ccc(O)c(C(=O)O)c1` [Compound B, 5-n-Octanoylsalicylic acid]: where the note is “Compound B at 0.3% in H2O”, the “Score 2: (mean ± sd, n = 6)” value is given as 2.14 ± 0.52 and the “Score (mean ± sd, n = 6)” value is given as 1.75 ± 0.19.
As to `O=C(O)CO` [Glycolic acid, glycolic acid], under “Glycolic acid at 30% in H2O”, the “Score 2: (mean ± sd, n = 6)” value is given as 3.10 ± 0.12 and the “Score (mean ± sd, n = 6)” value is 2.14 ± 0.41.
